Data taken from patent US5601992A, “Peptide library formats and methods relating thereto” (Bunsen Rush Laboratories, Inc., priority 1994, dated 1997).
Where no end group is shown, it is not given here.

Legend:
melanophore cells = assay: Pigment dispersion assay with a-MSH- and control-peptide-coated beads on a dish plated with melanophore cells; assay type: cell-based; conditions: TFA-treated beads on agarose gel with 20 nM melantonin; ten and 30 minutes after placement
Protocol: a-MSH and its congener peptide (cp) were screened using a culture dish plated with melanophore cells. Melanophores were maintained in cell culture as previously described (A. Daniolos, et al., Pigment Cell Res. 3, 38 (1990); M. N. Potenza, M. R. Lerner, Pigment Cell Res. 4, 186 (1991)). Four million cells were seeded into a 100 mm tissue culture plate (actual internal diameter was 85 mm) in 20 mL of frog fibroblast conditioned media and incubated at 27° C. for 72 h. For an experiment, the media was removed from the dish and replaced with 9 mL of 0.9% Sea Plaque Agarose (FMC Corporation) prepared in fibroblast conditioned media containing 20 nM melantonin. The plate was then placed in the dark for thirty min, after which beads coated with a-MSH or the cp, were sprinkled on the agarose bed and the pigment dispersion response was monitored by photography.

murine bombesin receptor = biological target: T1, murine bombesin receptor (Mus musculus, UniProt P21729); assay: Screening of bead-released peptides (MPL) on agarose-overlaid melanophores expressing the bombesin receptor; pigment dispersion; assay type: cell-based; conditions: TFA-gas-cleaved beads on agarose with 2 nM melantonin
T1 construct: expressed in transfected cells; host or cells: melanophores (frog; cultured as in Potenza & Lerner), transfected by electroporation with pJG3.6BR
Protocol: Melanophore cells (either transfected or non-transfected and as described in the above-identified patent application) were seeded (4×10^6)into 100 mm tissue culture plate (Falcon, N.J.). For transfected cells, the 100 mm tissue culture dishes were pre-coated with Cell-Tak (Collaborative Research, Inc., Massachusetts) at a concentration of […]. Media and conditions unless otherwise stated, were as described in the above-identified patent application. For wild type cells, no media changes are necessary and the cells can be used as soon as 24 hours after plating. For transfected cells, after the cells have attached to the surface (2-3 h), the media was removed and replaced with 20 ml of frog fibroblast conditioned media which is based on 70% L-15 media (Sigma) with 20% fetal bovine serum supplemented with L-Glutamine and Penicillin Streptomycin (Gibco). The cells were incubated at 27° C. for 12-72 h. Then 12-24 before the experiment, the media was removed and the cells were washed gently with 1×10 ml 70% EX-CELL 320 (JRH Biosciences, Kansas; 70% part A 29% water and 1% part B, hereinafter EX-CELL). […]
The bombesin MPL was screened for agonists using melanophore cells expressing the bombesin receptor. […] Pigment dispersion induced by peptide analogues were monitored by video image subtraction (McClintock, T., et al., Anal. Biochem. 209:298-305 (1993)). […]

T1 sequence (P21729 whole entry): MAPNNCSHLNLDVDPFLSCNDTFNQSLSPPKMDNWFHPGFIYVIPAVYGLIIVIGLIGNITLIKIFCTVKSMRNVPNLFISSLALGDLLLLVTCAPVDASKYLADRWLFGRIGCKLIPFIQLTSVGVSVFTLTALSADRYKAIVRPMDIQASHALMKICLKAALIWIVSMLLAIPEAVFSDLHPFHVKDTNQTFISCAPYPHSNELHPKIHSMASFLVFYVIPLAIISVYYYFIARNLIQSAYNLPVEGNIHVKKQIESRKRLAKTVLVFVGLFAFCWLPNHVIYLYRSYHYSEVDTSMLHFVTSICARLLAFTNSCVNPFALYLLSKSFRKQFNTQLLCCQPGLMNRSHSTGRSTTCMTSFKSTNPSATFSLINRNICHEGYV

Substance	pigment dispersion response (melanophore cells)	pigment dispersion response of recombinant melanophores to peptide released from bead (agonist activity) (murine bombesin receptor)
Ser-Lys-Glu-Arg-His-Ser-Trp-Tyr-NH2 (SKERHSWY-NH2) [cp, negative control peptide]	lack of a pigment dispersion response	–
litorin	–	biological activity of the free peptide released from (but still coated on) the bead was confirmed
